Test results from patent publication US20140161720A1, “TREATMENT OF ANGIOGENIC- OR VASCULAR-ASSOCIATED DISEASES” (THE GENERAL HOSPITAL CORPORATION, priority 2011, published 2014).
Entries after “also recorded” stand apart in the source; their conditions may differ.

Assays:
PI3K-alpha = PI3K-alpha (Homo sapiens, UniProt P42336); experiment: Kinase inhibition screening; type: biochemical; conditions: 10-dose, starting at 100 μM, 1 μM ATP
Procedure: (§1) To determine kinase activity of DAL, various kinases (AKT1, AKT2, AKT3, PKA, PKC alpha, PKC delta, PAK1, EPHB2, EPHB4, p38 alpha, PI3K-alpha, PI3K-beta, PI3K-gamma, PI3K-delta) were screened in a 10-dose IC50 mode with threefold serial dilutions starting at 100 μM. Staurosporine was used as a control starting at 10 μM and the reactions were carried out at 1 μM ATP.
(§2) Without wishing to be bound by theory, DAL brings about its antivascular effects by destabilizing cell adhesion through the actin cytoskeleton. It was next sought to identify which specific adhesion pathway it targets. Mechanical attachment at cell-cell adherens and tight junctions is regulated by dynamic changes in the actin cytoskeleton. Adherens junctions are composed of E-cadherin/β-catenin complexes and are connected to the actin cytoskeleton via sa-catenin (25-26), while tight junctions consist of transmembrane claudins and occludin and are associated with the actin cytoskeleton via ZO proteins (27-28). Therefore, potential targets of DAL in signaling pathways involved in actin remodeling were evaluated. […] Then, it was sought to determine whether Rho-GTPase family members are targets for DAL due to the disruption of cell adhesion and actin network remodeling along with inhibited motility. Rho-GTPases (e.g., Rac1) plays an important role in actin cytoskeletal organization and is involved in the coordination of cell adhesion (29). Furthermore, Rac1 is responsible for stabilizing endothelial cell junctions by opposing actin remodeling by Rho (30). In order to migrate, cancer cells employ dynamic remodeling of the actin cytoskeleton, form protrusive structures and generate forces necessary to produce cell translocation in the process regulated by Rho-GTPase Rac1. To assess whether DAL can modulate Rac1, RhoA, and Cdc42 activities, affinity purification assays were employed to monitor RhoA and Cdc42/Rac1 activity. The Rho-Binding Domain (RBD) of the Rho effector protein rhotekin and the p21 Binding Domain (PBD) of the Cdc42/Rac effector protein p21 activated kinase 1 (PAK) were applied to pull down active forms of each protein.

PKC alpha = PKC alpha (Homo sapiens, UniProt P17252); experiment: Kinase inhibition screening; type: biochemical; conditions: 10-dose, starting at 100 μM, 1 μM ATP
Procedure: as §1, §2

PKC delta = PKC delta (Homo sapiens, UniProt Q05655); experiment: Kinase inhibition screening; type: biochemical; conditions: 10-dose, starting at 100 μM, 1 μM ATP
Procedure: as §1, §2

AKT1 = AKT1 (Homo sapiens, UniProt P31749); experiment: Kinase inhibition screening; type: biochemical; conditions: 10-dose, starting at 100 μM, 1 μM ATP
Procedure: as §1, §2

AKT3 = AKT3 (Homo sapiens, UniProt Q9Y243); experiment: Kinase inhibition screening; type: biochemical; conditions: 10-dose, starting at 100 μM, 1 μM ATP
Procedure: as §1, §2

PI3K-gamma = PI3K-gamma (Homo sapiens, UniProt P48736); experiment: Kinase inhibition screening; type: biochemical; conditions: 10-dose, starting at 100 μM, 1 μM ATP
Procedure: as §1, §2

EPHB2 = EPHB2 (Homo sapiens, UniProt P29323); experiment: Kinase inhibition screening; type: biochemical; conditions: 10-dose, starting at 100 μM, 1 μM ATP
Procedure: as §1, §2

[1] = test system: orthotopic 4T1 mammary tumors; experiment: Vascular parameters in tumors by intravital multiphoton microscopy; type: in vivo, female SCID mice; conditions: 37.5 mg/kg daily i.p.
Procedure: Female SCID mice bearing orthotopic GFP-labeled 3 mm 4T1 mammary tumors were treated with five daily i.p. injections (day 0-day 4) of 37.5 mg/kg DAL or saline. Implanted mammary fat pad windows (35) were surgically implanted to facilitate intravital imaging through multiphoton microscopy with a custom-built multiphoton microscope with a 20×0.95NA objective (Olympus), and mice were imaged by fluorescent angiography following retro-orbital injection of 60 uL of 10 mg/mL TAMRA-dextran (2MDa molecular mass). Images were collected on day 0, day 2, and day 4, with the first images collected immediately before the first treatment. The 2×2 grids were imaged in the sample plane (630-μm) field of view at each position) tissue from 0-200 μm depth. To measure vascular parameters in the mice over the course of treatment, a custom 3D vascular tracing and analysis software package based on MATLAB (The Mathworks) was applied to the images.
To study these effects quantitatively, fluorescent angiographies were conducted in female SCID mice bearing orthotopic 4T1 mammary tumors in mammary fat pad windows via intravital multiphoton microscopy (FIG. 3A) (22-24). These mice were treated with 37.5 mg/kg DAL or saline daily for 5 days by i.p. injection. It was determined that DAL treatment decreases tumor vascular volume fractions—a measure of vascular density—compared with saline treatment (FIG. 3B, p<0.002, day 4).

[2] = Toxicity of intraperitoneal DAL in SCID mice; type: in vivo; conditions: intraperitoneal doses of up to 100 mg/kg
Procedure: A cell-based readout system was used for compound selection. For the cell-based screening, an optimal cell density of 10,000 breast cancer MDA-MB-231 cells/well was selected to produce the most prominent signal. The plated cells were incubated with each library compound, washed with PBS, and the Cell Titer-Glo (Promega) reagent was used to detect the number of cells remaining attached in each well. This ATP-based detection has a linear relationship between the luminescent signal and the number of cells per well. Of the 50,000 compounds screened, 86 library compounds (0.172% of screened compounds) were selected at 1.67 μM concentration for the second screening step. […] As a further test of toxicity, DAL was injected intraperitoneally at 100 mg/kg in SCID mice and signs of toxicity including cachexia, ruffled fur, diarrhea, anorexia, skin ulceration, and toxic death were monitored.
A screening strategy was developed to identify potential agents that target adhesion of endothelial cells or cancer cells to their substrate. […] The initial screening step quantified the number of cells remaining attached to their wells following incubation with each compound and subsequent washing steps. […] The agents that affect cell adhesion can be monitored through remodeling of actin filaments. […] Changes in actin assembly and cell shape after treatment with 12 compounds were determined. […]

Sequence of PI3K-gamma (P48736 whole entry, species assumed): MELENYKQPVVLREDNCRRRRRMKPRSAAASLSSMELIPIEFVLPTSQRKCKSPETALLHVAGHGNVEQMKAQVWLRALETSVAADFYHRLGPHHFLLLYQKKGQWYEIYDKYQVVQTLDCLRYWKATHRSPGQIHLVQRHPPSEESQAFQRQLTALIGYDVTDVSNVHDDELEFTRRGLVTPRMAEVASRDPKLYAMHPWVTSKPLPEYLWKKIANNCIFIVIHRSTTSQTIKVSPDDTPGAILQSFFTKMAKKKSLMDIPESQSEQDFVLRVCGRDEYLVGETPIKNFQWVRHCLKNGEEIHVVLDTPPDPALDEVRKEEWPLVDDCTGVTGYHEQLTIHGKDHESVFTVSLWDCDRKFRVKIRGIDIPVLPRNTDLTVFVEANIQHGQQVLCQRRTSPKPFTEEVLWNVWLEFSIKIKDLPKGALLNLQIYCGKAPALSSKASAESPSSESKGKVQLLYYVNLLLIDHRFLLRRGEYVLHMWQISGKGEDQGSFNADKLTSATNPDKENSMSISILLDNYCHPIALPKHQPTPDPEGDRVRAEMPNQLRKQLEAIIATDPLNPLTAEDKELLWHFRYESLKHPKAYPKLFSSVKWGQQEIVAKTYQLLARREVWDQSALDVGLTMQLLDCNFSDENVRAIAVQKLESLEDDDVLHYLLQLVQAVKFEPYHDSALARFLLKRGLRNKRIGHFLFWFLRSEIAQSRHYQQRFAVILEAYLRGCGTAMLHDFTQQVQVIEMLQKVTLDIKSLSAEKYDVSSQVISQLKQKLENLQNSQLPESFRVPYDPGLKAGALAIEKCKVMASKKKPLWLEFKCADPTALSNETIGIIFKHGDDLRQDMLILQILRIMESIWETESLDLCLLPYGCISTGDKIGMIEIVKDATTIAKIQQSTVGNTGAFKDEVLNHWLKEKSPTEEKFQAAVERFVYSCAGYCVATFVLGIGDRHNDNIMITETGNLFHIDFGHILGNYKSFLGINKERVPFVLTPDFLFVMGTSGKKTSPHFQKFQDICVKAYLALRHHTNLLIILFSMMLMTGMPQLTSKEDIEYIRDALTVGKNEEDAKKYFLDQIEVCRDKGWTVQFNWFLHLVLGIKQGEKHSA
Sequence of EPHB2 (P29323 19-1055, species assumed): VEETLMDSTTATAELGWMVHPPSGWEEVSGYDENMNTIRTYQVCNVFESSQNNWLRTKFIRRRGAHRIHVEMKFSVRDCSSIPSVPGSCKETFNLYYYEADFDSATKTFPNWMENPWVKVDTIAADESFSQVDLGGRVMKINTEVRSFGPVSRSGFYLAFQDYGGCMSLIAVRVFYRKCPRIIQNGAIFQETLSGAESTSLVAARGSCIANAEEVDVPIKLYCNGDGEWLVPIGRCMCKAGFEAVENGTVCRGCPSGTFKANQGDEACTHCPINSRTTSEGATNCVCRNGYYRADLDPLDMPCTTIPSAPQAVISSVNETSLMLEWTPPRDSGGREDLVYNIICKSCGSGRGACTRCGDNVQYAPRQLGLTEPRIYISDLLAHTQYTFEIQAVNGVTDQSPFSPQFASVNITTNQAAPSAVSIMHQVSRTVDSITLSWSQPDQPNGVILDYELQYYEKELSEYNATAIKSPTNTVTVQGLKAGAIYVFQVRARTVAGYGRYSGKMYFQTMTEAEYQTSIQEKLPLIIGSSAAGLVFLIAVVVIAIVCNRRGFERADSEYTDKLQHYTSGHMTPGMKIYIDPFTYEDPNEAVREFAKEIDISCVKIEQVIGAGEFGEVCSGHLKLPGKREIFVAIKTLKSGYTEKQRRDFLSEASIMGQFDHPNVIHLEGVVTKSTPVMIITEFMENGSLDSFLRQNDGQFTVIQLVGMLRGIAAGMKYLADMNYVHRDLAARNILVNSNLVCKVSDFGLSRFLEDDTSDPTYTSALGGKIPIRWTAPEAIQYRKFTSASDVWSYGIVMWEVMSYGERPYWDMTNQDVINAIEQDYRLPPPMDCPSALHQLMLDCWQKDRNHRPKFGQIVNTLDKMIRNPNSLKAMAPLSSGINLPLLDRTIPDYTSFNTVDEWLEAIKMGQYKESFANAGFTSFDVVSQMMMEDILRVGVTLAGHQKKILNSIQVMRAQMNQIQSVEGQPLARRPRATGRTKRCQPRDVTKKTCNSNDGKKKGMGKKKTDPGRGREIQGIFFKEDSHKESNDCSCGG
Sequence of AKT3 (Q9Y243 whole entry, species assumed): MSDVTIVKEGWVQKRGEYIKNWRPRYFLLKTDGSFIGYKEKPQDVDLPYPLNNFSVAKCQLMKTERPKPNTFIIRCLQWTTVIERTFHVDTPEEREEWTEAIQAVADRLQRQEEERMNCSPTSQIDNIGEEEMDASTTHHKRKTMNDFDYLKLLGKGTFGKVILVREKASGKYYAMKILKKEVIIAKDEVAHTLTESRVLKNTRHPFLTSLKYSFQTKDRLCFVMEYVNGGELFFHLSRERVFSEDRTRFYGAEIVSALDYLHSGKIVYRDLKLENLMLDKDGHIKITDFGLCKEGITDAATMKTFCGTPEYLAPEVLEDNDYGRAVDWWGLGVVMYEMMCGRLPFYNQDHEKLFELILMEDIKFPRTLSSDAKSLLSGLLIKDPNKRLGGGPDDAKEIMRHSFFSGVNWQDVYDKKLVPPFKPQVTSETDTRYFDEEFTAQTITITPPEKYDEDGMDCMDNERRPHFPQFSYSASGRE
Sequence of PKC delta (Q05655 whole entry): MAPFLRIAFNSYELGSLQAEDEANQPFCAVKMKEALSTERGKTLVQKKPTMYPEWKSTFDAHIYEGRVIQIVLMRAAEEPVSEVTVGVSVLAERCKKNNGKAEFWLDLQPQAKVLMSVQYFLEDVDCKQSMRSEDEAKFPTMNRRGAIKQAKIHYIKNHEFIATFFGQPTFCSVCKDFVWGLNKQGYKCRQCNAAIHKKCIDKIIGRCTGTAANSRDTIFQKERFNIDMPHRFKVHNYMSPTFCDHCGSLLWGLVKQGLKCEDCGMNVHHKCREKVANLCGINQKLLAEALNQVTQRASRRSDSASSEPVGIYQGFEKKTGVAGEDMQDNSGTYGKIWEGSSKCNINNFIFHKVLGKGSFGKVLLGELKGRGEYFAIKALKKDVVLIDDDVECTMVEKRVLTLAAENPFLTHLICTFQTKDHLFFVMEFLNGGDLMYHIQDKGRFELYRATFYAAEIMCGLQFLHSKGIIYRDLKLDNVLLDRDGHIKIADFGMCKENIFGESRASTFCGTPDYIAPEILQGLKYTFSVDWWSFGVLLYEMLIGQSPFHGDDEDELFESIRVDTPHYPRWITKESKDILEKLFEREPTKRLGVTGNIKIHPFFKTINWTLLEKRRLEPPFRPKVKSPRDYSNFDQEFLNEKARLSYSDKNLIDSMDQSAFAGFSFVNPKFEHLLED
Sequence of PI3K-alpha (P42336 whole entry, species assumed): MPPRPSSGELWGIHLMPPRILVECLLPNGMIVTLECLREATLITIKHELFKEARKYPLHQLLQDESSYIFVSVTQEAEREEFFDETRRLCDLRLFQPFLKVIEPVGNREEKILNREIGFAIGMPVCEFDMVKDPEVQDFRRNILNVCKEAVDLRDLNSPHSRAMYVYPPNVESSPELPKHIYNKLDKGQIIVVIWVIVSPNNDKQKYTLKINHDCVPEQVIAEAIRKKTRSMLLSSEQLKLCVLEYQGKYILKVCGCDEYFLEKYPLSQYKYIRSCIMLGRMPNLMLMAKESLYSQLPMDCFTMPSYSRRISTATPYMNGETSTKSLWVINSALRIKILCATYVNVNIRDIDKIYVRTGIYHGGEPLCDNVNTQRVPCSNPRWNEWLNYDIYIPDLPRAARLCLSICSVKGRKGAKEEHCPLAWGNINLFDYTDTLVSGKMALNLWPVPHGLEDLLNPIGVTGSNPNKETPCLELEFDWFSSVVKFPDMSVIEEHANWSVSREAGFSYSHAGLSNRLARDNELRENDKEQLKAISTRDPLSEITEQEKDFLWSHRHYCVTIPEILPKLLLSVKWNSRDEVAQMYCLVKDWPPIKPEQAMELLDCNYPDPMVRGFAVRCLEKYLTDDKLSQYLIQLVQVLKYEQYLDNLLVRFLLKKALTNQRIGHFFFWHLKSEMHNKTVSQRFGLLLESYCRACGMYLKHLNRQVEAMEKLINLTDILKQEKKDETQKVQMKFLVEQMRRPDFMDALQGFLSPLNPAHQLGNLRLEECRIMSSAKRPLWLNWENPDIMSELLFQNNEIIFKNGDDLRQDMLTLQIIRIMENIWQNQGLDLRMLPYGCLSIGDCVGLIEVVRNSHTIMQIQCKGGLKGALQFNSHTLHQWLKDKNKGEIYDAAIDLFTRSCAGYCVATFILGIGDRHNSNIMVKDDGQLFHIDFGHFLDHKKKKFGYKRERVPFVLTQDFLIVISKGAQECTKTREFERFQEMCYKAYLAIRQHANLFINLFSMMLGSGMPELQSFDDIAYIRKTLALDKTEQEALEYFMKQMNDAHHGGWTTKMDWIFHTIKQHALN
Sequence of PI3K-alpha (P27986 whole entry partner, species assumed): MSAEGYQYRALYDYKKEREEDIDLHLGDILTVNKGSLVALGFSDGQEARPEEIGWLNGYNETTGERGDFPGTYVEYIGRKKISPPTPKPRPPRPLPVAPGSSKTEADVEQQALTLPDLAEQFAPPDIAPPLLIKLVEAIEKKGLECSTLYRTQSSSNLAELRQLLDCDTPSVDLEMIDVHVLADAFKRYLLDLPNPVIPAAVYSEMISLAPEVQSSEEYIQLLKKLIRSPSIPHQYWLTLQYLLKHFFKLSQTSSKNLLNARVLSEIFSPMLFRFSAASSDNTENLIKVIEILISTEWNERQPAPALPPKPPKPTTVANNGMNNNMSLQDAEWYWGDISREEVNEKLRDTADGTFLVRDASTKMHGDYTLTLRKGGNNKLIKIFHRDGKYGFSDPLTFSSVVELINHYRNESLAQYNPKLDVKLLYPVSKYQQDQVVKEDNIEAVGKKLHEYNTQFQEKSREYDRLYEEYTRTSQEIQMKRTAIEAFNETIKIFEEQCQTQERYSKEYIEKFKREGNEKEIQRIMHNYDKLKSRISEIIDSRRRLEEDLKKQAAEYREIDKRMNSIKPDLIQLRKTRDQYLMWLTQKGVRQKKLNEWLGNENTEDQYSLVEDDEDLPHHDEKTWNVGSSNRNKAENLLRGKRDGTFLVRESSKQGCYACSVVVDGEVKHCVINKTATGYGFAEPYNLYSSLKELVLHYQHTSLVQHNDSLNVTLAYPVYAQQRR

CC1(C)C=CC2=C(O1)C(=O)c1ccccc1C2=O [DAL, dehydro-alpha-lapachone]
effect on kinase PI3K-alpha (PI3K-alpha): no significant effects
effect on kinase PKC alpha (PKC alpha): no significant effects
effect on kinase PKC delta (PKC delta): no significant effects
effect on kinase AKT1 (AKT1): no significant effects
effect on kinase AKT3 (AKT3): no significant effects
effect on kinase PI3K-gamma (PI3K-gamma): no significant effects
effect on kinase EPHB2 (EPHB2): no significant effects
total tumor vascular length (normalized to tumor volume) ([1]; day 2 and day 4, versus saline): lower
tumor vascular volume fraction ([1]; day 4, versus saline): decreases; also recorded: lower
mean tumor vascular diameter ([1]; versus saline): remains the same; also recorded: no significant difference
signs of toxicity (cachexia, ruffled fur, diarrhea, anorexia, skin ulceration, toxic death) [2]: low toxicity; also recorded: no signs of toxicity
